From patent US12291519B2, “2-hydroxycycloalkane-1-carbamoyl” (Idorsia Pharmaceuticals Ltd, priority 2019, dated 2025) come the findings set out here.

For one test, the target named is human Gal-1 (hGal-1). Nature of the test: Competitive binding assay: biotinylated hGal-1 binding to microplate-adsorbed asialofetuin (ASF). Particulars: Activity on hGal-1; binding of biotinylated hGal-1 to ASF-coated plates; mean values. The method, boiled down: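 Inhibition measured as loss of hGal-1 (biotinylated, 300–1000 ng/mL, wild type or Cys→Ser mutant) binding to adsorbed asialofetuin over 3 h at 4 °C. Bound lectin detected with streptavidin-HRP and ABTS (410 nm, 30–45 min); IC50 values averaged across repeat measurements.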
Sequence of human Gal-1 (hGal-1) (P09382 2-135 limits assumed): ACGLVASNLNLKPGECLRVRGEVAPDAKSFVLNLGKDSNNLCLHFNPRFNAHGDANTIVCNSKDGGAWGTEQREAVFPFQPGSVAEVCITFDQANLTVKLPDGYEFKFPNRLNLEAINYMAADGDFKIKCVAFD

The next test deals with human Gal-3 (hGal-3) (Homo sapiens (Human), UniProt P17931). The experiment in a line: Competitive binding assay: biotinylated hGal-3 binding to microplate-adsorbed asialofetuin (ASF). Particulars: Activity on hGal-3; binding of biotinylated hGal-3 to ASF-coated plates; mean values. The method, boiled down:
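Serially diluted compounds competed with biotinylated human Gal-3 for binding to plate-adsorbed asialofetuin over 3 h at 4 °C. Bound Gal-3 was detected with streptavidin-peroxidase (80 ng/mL, 1 h, 4 °C) and ABTS substrate. IC50 values are means of several measurements.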

By IC50 is commonly meant the concentration that gives 50% inhibition.

Sequence of human Gal-3 (hGal-3) (P17931 whole entry): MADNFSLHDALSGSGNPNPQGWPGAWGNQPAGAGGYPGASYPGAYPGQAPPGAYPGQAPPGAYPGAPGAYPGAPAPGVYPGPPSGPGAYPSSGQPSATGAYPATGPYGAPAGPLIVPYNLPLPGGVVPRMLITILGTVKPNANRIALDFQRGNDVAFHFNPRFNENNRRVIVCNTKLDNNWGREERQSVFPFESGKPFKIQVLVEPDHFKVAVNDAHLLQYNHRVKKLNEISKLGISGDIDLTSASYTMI

With `CO[C@@H]1[C@@H](n2cc(-c3cc(F)cc(Cl)c3)nn2)[C@@H](O)[C@@H](CO)O[C@H]1C(=O)N(c1ccc(F)c(F)c1)[C@H]1CCCC[C@@H]1O` [Example 134, (2R,3R,4S,5R,6R)-4-(4-(3-chloro-5-fluorophenyl)-1H-1,2,3-triazol-1-yl)-N-(3,4-difluorophenyl)-5-hydroxy-N-((1S,2S)-2-hydroxycyclohexyl)-6-(hydroxymethyl)-3-methoxytetrahydro-2H-pyran-2-carboxamide], the half-inhibitory concentration (IC50) at human Gal-1 (hGal-1) amounted to 761 nM; on human Gal-3 (hGal-3), 63 nM.
Regarding `CO[C@@H]1[C@@H](n2cc(-c3cc(F)cc(Cl)c3)nn2)[C@@H](O)[C@@H](CO)O[C@H]1C(=O)N(c1cc(F)cc(C#N)c1)[C@H]1CCCC[C@@H]1O` [Example 135, (2R,3R,4S,5R,6R)-4-(4-(3-chloro-5-fluorophenyl)-1H-1,2,3-triazol-1-yl)-N-(3-cyano-5-fluorophenyl)-5-hydroxy-N-((1S,2S)-2-hydroxycyclohexyl)-6-(hydroxymethyl)-3-methoxytetrahydro-2H-pyran-2-carboxamide], the IC50 on human Gal-1 (hGal-1) was 270 nM; at human Gal-3 (hGal-3), 52 nM.
In the case of `CO[C@@H]1[C@@H](n2cc(-c3cc(F)cc(Cl)c3)nn2)[C@@H](O)[C@@H](CO)O[C@H]1C(=O)N(c1cc(F)cc(Br)c1)[C@H]1CCCC[C@@H]1O` [Example 136, (2R,3R,4S,5R,6R)-N-(3-bromo-5-fluorophenyl)-4-(4-(3-chloro-5-fluorophenyl)-1H-1,2,3-triazol-1-yl)-5-hydroxy-N-((1S,2S)-2-hydroxycyclohexyl)-6-(hydroxymethyl)-3-methoxytetrahydro-2H-pyran-2-carboxamide], the IC50 on human Gal-1 (hGal-1) turned out to be 323 nM; at human Gal-3 (hGal-3) it was 25 nM.
For `CO[C@@H]1[C@@H](n2cc(-c3cc(F)cc(Cl)c3)nn2)[C@@H](O)[C@@H](CO)O[C@H]1C(=O)N(c1cc(Br)cc(C#N)c1)[C@H]1CCCC[C@@H]1O` [Example 137, (2R,3R,4S,5R,6R)-N-(3-bromo-5-cyanophenyl)-4-(4-(3-chloro-5-fluorophenyl)-1H-1,2,3-triazol-1-yl)-5-hydroxy-N-((1S,2S)-2-hydroxycyclohexyl)-6-(hydroxymethyl)-3-methoxytetrahydro-2H-pyran-2-carboxamide], the IC50 amounted to 318 nM on human Gal-1 (hGal-1) and 24 nM on human Gal-3 (hGal-3).
Take `CO[C@@H]1[C@@H](n2cc(-c3cc(F)cc(Cl)c3)nn2)[C@@H](O)[C@@H](CO)O[C@H]1C(=O)N(c1cccc(Br)c1)[C@H]1CCCC[C@@H]1O` [Example 138, (2R,3R,4S,5R,6R)-N-(3-bromophenyl)-4-(4-(3-chloro-5-fluorophenyl)-1H-1,2,3-triazol-1-yl)-5-hydroxy-N-((1S,2S)-2-hydroxycyclohexyl)-6-(hydroxymethyl)-3-methoxytetrahydro-2H-pyran-2-carboxamide]: the IC50 on human Gal-1 (hGal-1) amounted to 935 nM; on human Gal-3 (hGal-3) it was 43 nM.
The matching figures for `CO[C@@H]1[C@@H](n2cc(-c3cc(F)cc(Cl)c3)nn2)[C@@H](O)[C@@H](CO)O[C@H]1C(=O)N(c1cc(Cl)cc(Cl)c1)[C@H]1CCCC[C@@H]1O` [Example 139, (2R,3R,4S,5R,6R)-4-(4-(3-chloro-5-fluorophenyl)-1H-1,2,3-triazol-1-yl)-N-(3,5-dichlorophenyl)-5-hydroxy-N-((1S,2S)-2-hydroxycyclohexyl)-6-(hydroxymethyl)-3-methoxytetrahydro-2H-pyran-2-carboxamide]: 860 nM and 27 nM.
The matching figures for `CO[C@@H]1[C@@H](n2cc(-c3cc(F)cc(Cl)c3)nn2)[C@@H](O)[C@@H](CO)O[C@H]1C(=O)N(c1cc(C)cc(C#N)c1)[C@H]1CCCC[C@@H]1O` [Example 140, (2R,3R,4S,5R,6R)-4-(4-(3-chloro-5-fluorophenyl)-1H-1,2,3-triazol-1-yl)-N-(3-cyano-5-methylphenyl)-5-hydroxy-N-((1S,2S)-2-hydroxycyclohexyl)-6-(hydroxymethyl)-3-methoxytetrahydro-2H-pyran-2-carboxamide]: 671 nM and 33 nM.
The matching figures for `COc1cc(C#N)cc(N(C(=O)[C@@H]2O[C@H](CO)[C@H](O)[C@H](n3cc(-c4cc(F)cc(Cl)c4)nn3)[C@H]2OC)[C@H]2CCCC[C@@H]2O)c1` [Example 141, (2R,3R,4S,5R,6R)-4-(4-(3-chloro-5-fluorophenyl)-1H-1,2,3-triazol-1-yl)-N-(3-cyano-5-methoxyphenyl)-5-hydroxy-N-((1S,2S)-2-hydroxycyclohexyl)-6-(hydroxymethyl)-3-methoxytetrahydro-2H-pyran-2-carboxamide]: 1560 nM and 56 nM.
On to `CO[C@@H]1[C@@H](n2cc(-c3cc(F)cc(Cl)c3)nn2)[C@@H](O)[C@@H](CO)O[C@H]1C(=O)N(c1cccc(C#N)c1)[C@H]1CCCC[C@@H]1O` [Example 142, (2R,3R,4S,5R,6R)-4-(4-(3-chloro-5-fluorophenyl)-1H-1,2,3-triazol-1-yl)-N-(3-cyanophenyl)-5-hydroxy-N-((1S,2S)-2-hydroxycyclohexyl)-6-(hydroxymethyl)-3-methoxytetrahydro-2H-pyran-2-carboxamide], for which the half-inhibitory concentration (IC50) at human Gal-1 (hGal-1) stood at 1670 nM; at human Gal-3 (hGal-3), 77 nM.
For `CO[C@@H]1[C@@H](n2cc(-c3cc(F)cc(Cl)c3)nn2)[C@@H](O)[C@@H](CO)O[C@H]1C(=O)N(c1cccc(Cl)c1)[C@H]1CCCC[C@@H]1O` [Example 143, (2R,3R,4S,5R,6R)-4-(4-(3-chloro-5-fluorophenyl)-1H-1,2,3-triazol-1-yl)-N-(3-chlorophenyl)-5-hydroxy-N-((1S,2S)-2-hydroxycyclohexyl)-6-(hydroxymethyl)-3-methoxytetrahydro-2H-pyran-2-carboxamide], the concentration for half-maximal inhibition (IC50) was found to be 1410 nM at human Gal-1 (hGal-1) and 24 nM on human Gal-3 (hGal-3).
`CO[C@@H]1[C@@H](n2cc(-c3cc(F)cc(Br)c3)nn2)[C@@H](O)[C@@H](CO)O[C@H]1C(=O)N(c1cc(Cl)cc(Cl)c1)[C@H]1CCCC[C@@H]1O` [Example 144, (2R,3R,4S,5R,6R)-4-(4-(3-bromo-5-fluorophenyl)-1H-1,2,3-triazol-1-yl)-N-(3,5-dichlorophenyl)-5-hydroxy-N-((1S,2S)-2-hydroxycyclohexyl)-6-(hydroxymethyl)-3-methoxytetrahydro-2H-pyran-2-carboxamide]: the IC50 was determined as 726 nM at human Gal-1 (hGal-1) and 61 nM on human Gal-3 (hGal-3).
`CO[C@@H]1[C@@H](n2cc(-c3cc(F)cc(Br)c3)nn2)[C@@H](O)[C@@H](CO)O[C@H]1C(=O)N(c1cc(Cl)cc(C#N)c1)[C@H]1CCCC[C@@H]1O` [Example 145, (2R,3R,4S,5R,6R)-4-(4-(3-bromo-5-fluorophenyl)-1H-1,2,3-triazol-1-yl)-N-(3-chloro-5-cyanophenyl)-5-hydroxy-N-((1S,2S)-2-hydroxycyclohexyl)-6-(hydroxymethyl)-3-methoxytetrahydro-2H-pyran-2-carboxamide]: the 50% inhibitory concentration (IC50) at human Gal-1 (hGal-1) was determined as 218 nM; on human Gal-3 (hGal-3), 18 nM.
`CO[C@@H]1[C@@H](n2cc(-c3cc(F)cc(Br)c3)nn2)[C@@H](O)[C@@H](CO)O[C@H]1C(=O)N(c1cc(C)cc(C#N)c1)[C@H]1CCCC[C@@H]1O` [Example 146, (2R,3R,4S,5R,6R)-4-(4-(3-bromo-5-fluorophenyl)-1H-1,2,3-triazol-1-yl)-N-(3-cyano-5-methylphenyl)-5-hydroxy-N-((1S,2S)-2-hydroxycyclohexyl)-6-(hydroxymethyl)-3-methoxytetrahydro-2H-pyran-2-carboxamide]: the half-inhibitory concentration (IC50) at human Gal-1 (hGal-1) was 751 nM; on human Gal-3 (hGal-3), 50 nM.
On the same counts, the results for `CO[C@@H]1[C@@H](n2cc(-c3cc(F)cc(Br)c3)nn2)[C@@H](O)[C@@H](CO)O[C@H]1C(=O)N(c1cc(F)cc(Cl)c1)[C@H]1CCCC[C@@H]1O` [Example 147, (2R,3R,4S,5R,6R)-4-(4-(3-bromo-5-fluorophenyl)-1H-1,2,3-triazol-1-yl)-N-(3-chloro-5-fluorophenyl)-5-hydroxy-N-((1S,2S)-2-hydroxycyclohexyl)-6-(hydroxymethyl)-3-methoxytetrahydro-2H-pyran-2-carboxamide] are 530 nM and 71 nM.
The matching figures for `CO[C@@H]1[C@@H](n2cc(-c3cc(F)cc(Br)c3)nn2)[C@@H](O)[C@@H](CO)O[C@H]1C(=O)N(c1cccc(C#N)c1)[C@H]1CCCC[C@@H]1O` [Example 148, (2R,3R,4S,5R,6R)-4-(4-(3-bromo-5-fluorophenyl)-1H-1,2,3-triazol-1-yl)-N-(3-cyanophenyl)-5-hydroxy-N-((1S,2S)-2-hydroxycyclohexyl)-6-(hydroxymethyl)-3-methoxytetrahydro-2H-pyran-2-carboxamide]: 343 nM and 81 nM.
The matching figures for `CO[C@@H]1[C@@H](n2cc(-c3cc(F)cc(Br)c3)nn2)[C@@H](O)[C@@H](CO)O[C@H]1C(=O)N(c1cccc(Cl)c1)[C@H]1CCCC[C@@H]1O` [Example 149, (2R,3R,4S,5R,6R)-4-(4-(3-bromo-5-fluorophenyl)-1H-1,2,3-triazol-1-yl)-N-(3-chlorophenyl)-5-hydroxy-N-((1S,2S)-2-hydroxycyclohexyl)-6-(hydroxymethyl)-3-methoxytetrahydro-2H-pyran-2-carboxamide]: 707 nM and 85 nM.
As for `COc1cc(C#N)cc(N(C(=O)[C@@H]2O[C@H](CO)[C@H](O)[C@H](n3cc(-c4cc(F)cc(Br)c4)nn3)[C@H]2OC)[C@H]2CCCC[C@@H]2O)c1` [Example 150, (2R,3R,4S,5R,6R)-4-(4-(3-bromo-5-fluorophenyl)-1H-1,2,3-triazol-1-yl)-N-(3-cyano-5-methoxyphenyl)-5-hydroxy-N-((1S,2S)-2-hydroxycyclohexyl)-6-(hydroxymethyl)-3-methoxytetrahydro-2H-pyran-2-carboxamide], the IC50 on human Gal-1 (hGal-1) turned out to be 671 nM; on human Gal-3 (hGal-3) it was 62 nM.
